Where two headings read alike, the source gives them in different places.
Tests used:
B cell = B cell diff. (Table 4, method not given); format: cell-based
PBMC = PBMC IL 17 stim. (Table 4, method not given); format: cell-based
[1] = tested on: B-cells isolated from PBMC's; assay: Chymotrypsin-like ProteasomeGlo assay in B-cells isolated from PBMCs; format: cell-based, human
Source text: PBMC's will be isolated from human blood followed by B-cell isolation from the PBMC's using the Miltenyi Isolation Kit. • 2. This experiment will use the Chymotrypsin-like ProteasomeGlo read-out to generate IC50's following compound treatment. • 3. Dilute all compounds 1:100 for the assay. • 4. […] Repeat the DMSO transfer with lane 12. • 5. Lane 12 should not be seeded with any cells. Only medium! • 6. For all steps, make sure the samples and reagents remain cool! • 7. While dealing with the buffy coats, be careful to not let any exposed skin to be in direct contact with the blood. […] PBMC isolation followed by B-cell isolation using the Miltenyi Kit • Day 2: B-cell plating, ECHO transfer and ProteasomeGlo assay For the initial steps and to make processing the buffy coats easier, separately process the buffy coats. • a. Cut the tube attached to the buffy coats carefully using a clean, sterile and fresh scalpel. • b. Transfer the blood into 2 individual 50 ml falcons. • c. Add an equal volume of DPBS to the blood in the falcons. • d. Add 20 ml of lymphocyte separating medium to two 50 ml falcons. • e. Carefully pour 15-20 ml of the blood+DPBS mix from step c. onto the lymphocyte separating medium from step d. • f. Centrifuge the falcons with the lymphocyte separating medium+blood mix at 800×g for 15 minutes using a swing-out rotor. • g. Following centrifugation, carefully remove the falcons from the centrifuge. • h. The following layers will be observed: • i. Aspirate the plasma layer off carefully without disturbing the different layers. • j. Remove the cell pellet using a pipette into two fresh 50 ml falcons. • k. Fill the falcons with the cells up to 50 ml with DPBS. • l. Centrifuge the falcons at 250×g for 10 minutes using a swing-out rotor (Brake-off). • m. Aspirate the complete DPBS off the cells without disturbing the cell pellet at the bottom of the falcon. • n. Re-suspend the cell pellet in 10 ml of 1×RBC lysis buffer. • o. Incubate the falcons at room temperature in the dark for 10 minutes. • p. After RBC lysis, centrifuge the tubes at 250×g for 10 minutes using a swing-out rotor (brake-off). • (*Note: If the cell pellet is still red or light red, repeat steps n. to p.!) • q. Re-suspend the cell pellet in DPBS up to 50 ml in the falcon. • r. Centrifuge the falcons at 250×g for 10 minutes using a swing-out rotor (Brake-off). • s. Aspirate the DPBS off the cells without disturbing the cell pellet at the bottom of the falcon. • t. Repeat the wash step as described in steps q. to s. 2× times more (total number of washes is 3×). • u. Aspirate the DPBS completely off the cell pellet after the last wash without disturbing the cell pellet. • v. Re-suspend the cell pellet in 20 ml of PBMC cell medium. • w. […] Re-suspend the pellet in volume of the B-cell isolation buffer calculated as follows: • k. Mix well using a 1 ml pipette and incubate the mix on ice for 20 mins. • l. In the meantime, equilibrate one LS Column as follows: • 1. Insert one LS Column into one slot of the separator as depicted in the pictures above. • 2. Place a 50 ml falcon at the bottom of the LS column to collect the wash flow-through. • 3. Add 3 ml of the B-cell isolation buffer into the column. • 4. Allow the buffer to flow-through making sure that the entire volume passes the column and that the column reservoir is empty before the addition of the cells. • 5. Remove the falcon with the flow-through and discard. • m. Place a fresh 50 ml falcon under the LS Column to collect the untouched B-cells isolated from the PBMCs. • n. Apply the entire volume of the cell+antibody+microbeads mix to the LS Column. • o. Collect the flow-through from each application of the mix into the same 50 ml falcon under the LS Column. • p. Once the complete volume of the cell+antibody+microbead mix has been passed through, proceed to washing of the column. • q. Add 3 ml of the B-cell isolation buffer to the LS Column and allow the buffer to flow-through. […]

Karpas cells = assay: Glo assay of Karpas cells (Table 3; ProteasomeGlo plating scheme); format: cell-based; details: read-out: Pglo Karpas
Source text: Inhibition is indicated as IC50 [nM] (“-”=not measured). […] • Chymotrypsin-Like Cell-Based Proteasome-GloTM Assay (Promega; […]) • Cell culture 384-well plates (Greiner BioOne; 781080) • Dispensing cassette, MultiDrop Standard tube dispensing cassette (Thermo Scientific; 24072670) • DPBS (Pan BioTech; P04-36500) • Cell culture 384-well plates (Greiner BioOne; 781080) • CPD source plate: diamond-shape plate (Labcyte; LP-0200) • Intermediate plate (Labcyte; P-05525) [table] • a. Remove the plates with cells from the incubator. • b. Take all the plates including the compound plate, intermediate plate and Staurosporine plate to the ECHO. • c. Click on “Open” in the ECHO software and select the protocol “QLI5_25ul_30 uM-Grenier”. • d. Follow the on-screen prompts and instructions once you click “Start” to insert the compound plate, intermediate plate and destination plates. • e. Change the final number of destination plates on the program. • f. Follow the on-screen prompts and instructions once you click “Start” to load the Staurosporine and destination plates. • g. Once all the compounds, DMSO and Staurosporine have been transferred, place the destination plates in a wet tissue box. • h. Place the destination plates back into the incubator and incubate at 37° C., 5% CO2 for 105 minutes. • i. Re-seal all the compound+Stauro diamond and intermediate plates and store in the dark. Chymotrypsin like ProteasomeGlo Assay • 1. Thaw the components of the ProteasomeGlo assay at room temperature including the ProteasomeGlo Buffer, the lyophilized Luciferin Detection Reagent and the Suc-LLVY-Glo Substrate. • 2. Reconstitute the Luciferin Detection Reagent in the amber coloured bottle by adding 50 ml of the ProteasomeGlo Buffer. • 3. Vortex the Suc-LLVY-Glo Substrate briefly to reconstitute the Substrate well. • 4. Spin down the Substrate and add 250 μl of the Substrate to the reconstituted Luciferin Detection Reagent from step 2. • 5. Briefly vortex the amber bottle with the mix to prepare a homogenous solution. • 6. Place the mix prepared in step 5 to sit at room temperature for 60 minutes. • 7. After 60 minutes, pipette 25 μl of the mix from step 5 into all wells with the cells. • 8. Shake the plates for 2-5 minutes to ensure the complete mixing of the ProteasomeGlo reagent with the cells. • 9. Leave the plates in the dark for 10-15 minutes. • 10. Measure the luminescence read-out using the Viktor and the protocol “Luminescence_384Well_0.2 sec”. (Note: The Protoeasome-GloTM Reagent (combined Proteasome-GloTM Substrate, Proteasome-GloTM Buffer and Luciferin Detection Reagent) can be stored at 4° C. or -20° C. for 1 month with minimal loss of activity.)

[2] = from Cc1ccc(OCCC2CCCNC2)cc1CNC(=O)[C@H](CCc1ccccc1)NC(=O)[C@H](CC(=O)O)NC(=O)OCc1ccccc1; amide bond; HATU; DMF; 252.0 mM; 25.0 °C; 2 steps
[3] = Homo sapiens, B-cells isolated from PBMC's, read-out: Pglo B-Cell

SMILES | IC50 (B cell; B-cell) [µM] | IC50 [1, 3] [nM] | other results
Cc1ccc2cc1CNC(=O)[C@H](CCc1ccccc1)NC(=O)[C@@H](NC(=O)C(C)(C)C)CC(=O)N1CCCC(CCO2)C1 (stereo partly drawn) [Compound 27, N-((9S,12S)-5^4-methyl-8,11,14-trioxo-9-phenethyl-4-oxa-7,10-diaza-1(3,1)-piperidina-5(1,3)-benzenacyclotetradecaphane-12-yl)pivalamide] | < 0.1 | < 100 | IC50 (PBMC): < 0.1 µM
Cc1ccc2cc1CNC(=O)[C@H](CCc1ccccc1)NC(=O)[C@@H](NC(=O)c1nc3ccccc3[nH]1)CC(=O)N1CCCC(CCO2)C1 (stereo partly drawn) [Compound 31, N-((9S,12S)-5^4-methyl-8,11,14-trioxo-9-phenethyl-4-oxa-7,10-diaza-1(3,1)-piperidina-5(1,3)-benzenacyclotetradecaphane-12-yl)-1H-benzo[d] imidazole-2-carboxamide] |  | < 100 | 
Cc1ccc2cc1CNC(=O)[C@H](CCc1ccccc1)NC(=O)[C@@H](NC(=O)CC(C)(C)C)CC(=O)N1CCCC(CCO2)C1 (stereo partly drawn) [Compound 28, 3,3-dimethyl-N-((9S,12S)-5^4-methyl-8,11,14-trioxo-9-phenethyl-4-oxa-7,10-diaza-1(3,1)-piperidina-5(1,3)-benzenacyclotetradecaphane-12-yl)butanamide] |  |  | IC50 (Karpas cells): < 0.1 µM
Cc1ccc2cc1CNC(=O)[C@H](CCc1ccccc1)NC(=O)[C@@H](NC(=O)c1ncccn1)CC(=O)N1CCCC(CCO2)C1 (stereo partly drawn) [Compound 32, N-((9S,12S)-5^4-methyl-8,11,14-trioxo-9-phenethyl-4-oxa-7,10-diaza-1(3,1)-piperidina-5(1,3)-benzenacyclotetradecaphane-12-yl)pyrimidine-2-carboxamide] |  | < 100 | 
CC(=O)N[C@H]1CC(=O)N2CCCC(CCOc3ccc(C)c(c3)CNC(=O)[C@H](CCc3ccccc3)NC1=O)C2 (stereo partly drawn) [Compound 33, N-((9S,12S)-5^4-methyl-8,11,14-trioxo-9-phenethyl-4-oxa-7,10-diaza-1(3,1)-piperidina-5(1,3)-benzenacyclotetradecaphane-12-yl)acetamide] | < 0.1 | < 100 | 
Cc1ccc2cc1CNC(=O)[C@H](CCc1ccccc1)NC(=O)[C@@H](NC(=O)Cc1ccccc1C)CC(=O)N1CCCC(CCO2)C1 (stereo partly drawn) [Compound 373, N-((9S,12S)-5^4-methyl-8,11,14-trioxo-9-phenethyl-4-oxa-7,10-diaza-1(3,1)-piperidina-5(1,3)-benzenacyclotetradecaphane-12-yl)-2-(o-tolyl)acetamide] |  | < 100 | IC50 (Karpas cells): < 0.1 µM
Cc1ccc2cc1CNC(=O)[C@H](CCc1ccccc1)NC(=O)[C@@H](Nc1ncccn1)CC(=O)N1CCCC(CCO2)C1 (stereo partly drawn) [Compound 34, (9S,12S)-5^4-methyl-9-phenethyl-12-(pyrimidin-2-ylamino)-4-oxa-7,10-diaza-1(3,1)] | < 0.1 |  | IC50 ([1]; Homo sapiens, read-out: Pglo B-Cell [nM]): < 100 nM
Cc1ccc2cc1CNC(=O)[C@H](CCc1ccccc1)NC(=O)[C@@H](NC(=O)Cc1ccccc1)CC(=O)N1CCCC(CCO2)C1 (stereo partly drawn) [Compound 29, N-((9S,12S)-5^4-methyl-8,11,14-trioxo-9-phenethyl-4-oxa-7,10-diaza-1(3,1)-piperidina-5(1,3)-benzenacyclotetradecaphane-12-yl)-2-phenylacetamide] | < 0.1 | < 100 | IC50 (PBMC): < 0.1 µM
Cc1ccc2cc1CNC(=O)[C@H](CCc1ccccc1)NC(=O)[C@@H](NC1COC1)CC(=O)N1CCCC(CCO2)C1 (stereo partly drawn) [Compound 35, (9S,12S)-5^4-methyl-12-(oxetan-3-ylamino)-9-phenethyl-4-oxa-7,10-diaza-1(3,1)-piperidina-5(1,3)-benzenacyclotetradecaphane-8,11,14-trione] | < 0.1 | < 100 | 
Cc1ccc2cc1CNC(=O)[C@H](CCc1ccccc1)NC(=O)[C@@H](NC(=O)OCc1ccccc1)CC(=O)N1CCCC(CCO2)C1 (stereo partly drawn) [Compound 7, benzyl ((9S,12S)-5^4-methyl-8,11,14-trioxo-9-phenethyl-4-oxa-7,10-diaza-1(3,1)-piperidina-5(1,3)-benzenacyclotetradecaphane-12-yl)carbamate] |  |  | ring closure, yield of all isomers [2]: 68.9%
Cc1ccc2cc1CNC(=O)C(CCc1ccccc1)NC(=O)C(NC(=O)CCc1ccccc1)CC(=O)N1CCCC(CCO2)C1 [Compound 30, N-((9S,12S)-5^4-methyl-8,11,14-trioxo-9-phenethyl-4-oxa-7,10-diaza-1(3,1)-piperidina-5(1,3)-benzenacyclotetradecaphane-12-yl)-3-phenylpropanamide] |  |  | IC50 (B cell): < 0.1 µM; IC50 ([1]; B-cells isolated from PBMC's, read-out: Pglo B-Cell): < 100 nM
